Literature values as cited in patent US11135586B2, “Fluorinated pickering emulsion” (The Board of Trustees of the Leland Stanford Junior …, priority 2014, dated 2021).

Time without leakage in drops stabilized by surfactants: at least 36 hours
SMILES: O=C1OC2(c3ccc(O)cc3Oc3cc(O)ccc32)c2ccccc21 [fluorescein]
